Test results: patent EP0417165B1, “POLYPEPTIDE COMPOUNDS HAVING GROWTH HORMONE RELEASING ACTIVITY” (POLYGEN HOLDING CORPORATION, priority 1988, dated 1994)
Non-standard residues stand in square brackets, D forms with d. Residues, ends and D or L forms follow the SMILES beside them.

System: GH Release
Test: In vivo GH release in pentobarbital anesthetized rats (serum GH by RIA)
Design: species or system Sprague-Pawley rats
Settings: sacrificed 10 minutes after injection, mean ± SEM, six rats
Experimental: Immature female Sprague-Pawley rats were obtained from the Charles River Laboratories (Wilmington, MA). After arrival they were housed at 25° C with a 14:10 hr light:dark cycle. Water and Purina rat chow were available ad libitum. Pups were kept with their mothers until 21 days of age.
Normal saline with 0.1% gelatin was the vehicle for intravenous (i.v.) injections of the peptides. The anesthetized rats, weighing 55-65 grams, were injected i.v. with the quantity of growth hormone releasing compounds indicated in Table 3. Injection was made as a 0.1 mL solution into the jugular vein.
All animals were sacrificed by guillotine 10 minutes after the final test injection (see Table 3). Trunk blood for the determination of blood GH levels was collected following decapitation. After allowing the blood to clot, it was centrifuged and the serum was separated from the clot. Serum was kept frozen until the day of sampling for radioimmunoassay (RIA) determination of growth hormone levels according to the following procedure, as developed by the National Institute of Arthritis, Diabetes and Digestive and Kidney Diseases (NIADDK).
Reagents are generally added to the RIA analysis tubes at a single sitting, at refrigerator temperature (about 4°C) in the following sequence: • (a) buffer, • (b) "cold" (i.e., non-radioactive) standard or unknown serum sample to be analyzed, • (c) radio-iodinated growth hormone antigen, and • (d) growth hormone antiserum. Reagent addition is generally carried out so that there is achieved a final RIA tube dilution of about 1:30,000 (antiserum to total liquid volume; vol:vol).
The mixed reagents are then typically incubated at room temperature (about 25°C) for about 24 hours prior to addition of a second antibody (e.g., goat or rabbit anti-monkey gamma globulin serum) which binds to and causes precipitation of the complexed growth hormone antiserum. Precipitated contents of the RIA tubes are then analyzed for the number of counts in a specified period of time in a gamma scintillation counter. A standard curve is prepared by plotting number of radioactive counts versus growth hormone (GH) level. GH levels of unknowns are then determined by reference to the standard curve.
Serum GH was measured by RIA with reagents provided by the National Hormone and Pituitary Program.
Serum levels in Table 3 are recorded in ng/mL in terms of the rat GH standard of 0.61 International Units/mg (IU/mg). Data is recorded as the mean +/-standard error of the mean (SEM). Statistical analysis was performed with Student's t-test. In Table 3 the results shown are the average of studies with six rats.

[1] = Total Dose 0.3 µg i.v., 26 day old female rats, study with Control GH 142±43
[2] = Total Dose 0.3 µg i.v., 26 day old female rats, study with Control GH 208±47
[3] = Total Dose 1.0 µg i.v., 26 day old female rats, study with Control GH 142±43
[4] = Total Dose 1.0 µg i.v., 26 day old female rats, study with Control GH 208±47
[5] = Total Dose 1.0 µg i.v., 29 day old female rats, study with Control GH 108±17
[6] = Total Dose 3.0 µg i.v., 26 day old female rats, study with Control GH 142±43
[7] = Total Dose 3.0 µg i.v., 26 day old female rats, study with Control GH 208±47
[8] = Total Dose 3.0 µg i.v., 29 day old female rats, study with Control GH 108±17

Compound	GH Released by Compound in Column A [1] [ng/mL]	GH Released by Compound in Column A [2] [ng/mL]	GH Released by Compound in Column A [3] [ng/mL]	GH Released by Compound in Column A [4] [ng/mL]	GH Released by Compound in Column A [5] [ng/mL]	GH Released by Compound in Column A [6] [ng/mL]	GH Released by Compound in Column A [7] [ng/mL]	GH Released by Compound in Column A [8] [ng/mL]	GH Released by Compound in Column A (Total Dose 10.0 µg i.v., 26 day old female rats, study with Control GH 142±43) [ng/mL]	GH Released by Compound in Column A (Total Dose 10.0 µg i.v., 29 day old female rats, study with Control GH 108±17) [ng/mL]	GH Released by Compound in Column A (Total Dose 30.0 µg i.v., 26 day old female rats, study with Control GH 142±43) [ng/mL]	GH Released by Compound in Column A (Total Dose 0.3 µg i.v., 26 day old female rats, study with Control GH 151±16) [ng/mL]	GH Released by Compound in Column A (Total Dose 1.0 µg i.v., 26 day old female rats, study with Control GH 151±16) [ng/mL]	GH Released by Compound in Column A (Total Dose 3.0 µg i.v., 26 day old female rats, study with Control GH 111±25) [ng/mL]	GH Released by Compound in Column A (Total Dose 3.0 µg i.v., 26 day old female rats, study with Control GH 151±16) [ng/mL]	GH Released by Compound in Column A (Total Dose 0.3 µg i.v., 29 day old female rats, study with Control GH 108±17) [ng/mL]
C[C@H](N)C(=O)N[C@H](Cc1c[nH]c2ccccc12)C(=O)N[C@@H](C)C(=O)N[C@@H](Cc1c[nH]c2ccccc12)C(=O)N[C@H](Cc1ccccc1)C(=O)N[C@@H](CCCCN)C(N)=O [Ala-DTrp-Ala-Trp-DPhe-Lys-NH₂] (H-A[dW]AW[dF]K-NH2)	303 ± 41	265 ± 96	729 ± 115	754 ± 164	745 ± 68	1164 ± 215	1449 ± 238	1673 ± 352	2353 ± 149	2388 ± 269	2484 ± 110					
C[C@H](NC(=O)[C@@H](N)Cc1c[nH]cn1)C(=O)N[C@H](Cc1c[nH]c2ccccc12)C(=O)N[C@@H](C)C(=O)N[C@@H](Cc1c[nH]c2ccccc12)C(=O)N[C@H](Cc1ccccc1)C(=O)N[C@@H](CCCCN)C(N)=O [His-Ala-DTrp-Ala-Trp-DPhe-Lys-NH₂] (H-HA[dW]AW[dF]K-NH2)												261 ± 32	830 ± 103	2588 ± 341	2365 ± 478	
C[C@H](NC(=O)[C@@H](Cc1c[nH]c2ccccc12)NC(=O)[C@@H](N)Cc1c[nH]cn1)C(=O)N[C@@H](Cc1c[nH]c2ccccc12)C(=O)N[C@H](Cc1ccccc1)C(=O)N[C@@H](CCCCN)C(N)=O [His-DTrp-Ala-Trp-DPhe-Lys-NH₂] (H-H[dW]AW[dF]K-NH2)	533 ± 77	660 ± 128	1656 ± 213	1669 ± 257	2614 ± 349	2653 ± 378	3078 ± 629	3215 ± 547								764 ± 62
